Results on 29 compounds are retold here after article PMC11565046, “Rational design of 2H-chromene-based antiphytovirals that inhibit virion assembly by outcompeting virus capsid-RNA interactions” (iScience, 2024).

Read-outs that look alike come from different tables or passages of the source.

One data set deals with PVY. Nature of the data set: Inactivating activity against PVY, half-leaf method on Chenopodium amaranticolor. As to conditions: Potato virus Y, in Chenopodium amaranticolor. In kind it is in vivo, potato virus Y. Here is the method:
According to previous reports,[46] PVY was infested in Nicotiana tabacum K326, and PVY was harvested and purified after showing severe infection symptoms on the leaves. The literature-guided protocol was followed to assess the curative, prophylactic, and […] potential of the target compounds under investigation.[15]
Target compound solution (1,000 μg/mL) and 2 × virus solution were combined in equal quantities and incubated for 30 min. Evenly distribute emery onto the leaf blades, and apply the mixture of virus and compound solution onto the right side of C. amaranticolor leaf blades. Following this, an identical quantity of a 1× virus solution was applied to the untreated side of the leaf. Following a duration of 1.5 h, the emery residue present on the leaf surface was removed using a rinsing process utilizing water. The plants were incubated within a controlled greenhouse environment, maintaining a consistent temperature of 25°C. After 5−7 days, they proceeded to statistics the number of necrotic spots on the leaves. For each chemical, triplicate experiments were undertaken, and the average percentage of inhibition was subsequently determined.

The mark [1] stands for this setting: Chenopodium amaranticolor leaves, read-out: EC50 for inactivating activity.
[2] abbreviates: inactivating activity, Table S1, read-out: Experimental pEC50 (converted).

`CC1(C)C=Cc2c(ccc(/C=N/c3ccc(NS(=O)(=O)c4cccc(C#N)c4)cc3)c2O)O1` [Compound C11]: the melting point was 152 to 154 °C. Moreover, the EC50 in the data set with PVY (setting [1]) stood at 703 ± 25.3 µg/mL. Further, in the data set on PVY (setting [2]), the EC50 is 1530 µM.

`CC1(C)C=Cc2c(ccc(/C=N/c3ccc(NS(=O)(=O)c4cccnc4)cc3)c2O)O1` [Compound C9] had a melting point of 150 to 152 °C. The EC50 in the data set on PVY (setting [1]) worked out at 310 ± 8.6 µg/mL. Further, the EC50 with PVY (setting [2]) is 713 µM.

`CC1(C)C=Cc2c(ccc(/C=N/c3ccc(NS(=O)(=O)c4ccc(F)cc4)cc3)c2O)O1` [Compound C5] gave a melting point of 144 to 146 °C. Further, the EC50 with PVY (setting [1]) amounted to 165 ± 8.7 µg/mL. Also, in the data set with PVY (setting [2]), the EC50 was 366 µM.

Turning to `COc1ccc(S(=O)(=O)Nc2ccc(/N=C/c3ccc4c(c3O)C=CC(C)(C)O4)cc2)cc1` [Compound C1, (E) -N-(4-(((5-hydroxy-2,2-dimethyl-2H-chromen-6-yl)methylene)amino)phenyl) -4-methoxybenzenesulfonamide], the melting point was in the range of 139 to 141 °C. Besides, the EC50 in the data set on PVY (setting [1]) came to 441 ± 5.2 µg/mL. Further, in the data set with PVY (setting [2]), the EC50 is 951 µM.

`CC(C)=CCCC1(C)C=Cc2c(ccc(/C=N/c3ccc(NS(=O)(=O)c4c(F)cccc4F)cc3)c2O)O1` (stereo not drawn) [Compound C47] displayed a melting point of 80 to 82 °C. Also, the EC50 in the data set with PVY (setting [1]) is 630 ± 11.2 µg/mL. For the same compound, the EC50 in the data set on PVY (setting [2]) is 1170 µM.

On to `CC1(C)C=Cc2c(ccc(/C=N/c3ccc(NS(=O)(=O)c4ccccc4F)cc3)c2O)O1` [Compound C8], for which the melting point fell in the range of 175 to 177 °C. Further, the EC50 in the data set on PVY (setting [1]) came to 369 ± 9.9 µg/mL. In the data set on PVY (setting [2]), the EC50 is 667 µM.

On to `CC1(C)C=Cc2c(ccc(/C=N/c3ccc(NS(=O)(=O)c4ccccc4)cc3)c2O)O1` [Compound C17], for which the melting point lay within 134 to 136 °C. Besides, in the data set on PVY (setting [1]), the EC50 turned out to be 168 ± 4.8 µg/mL. Also, the EC50 with PVY (setting [2]) is 388 µM.

`Cc1noc(C)c1S(=O)(=O)Nc1ccc(/N=C/c2ccc3c(c2O)C=CC(C)(C)O3)cc1` [Compound C39] gave a melting point of 195 to 197 °C. For the same compound, the EC50 in the data set with PVY (setting [1]) came to 397.1 ± 2.3 µg/mL. Further, the EC50 in the data set on PVY (setting [2]) is 877 µM.

The compound `CC1(C)C=Cc2c(ccc(/C=N/c3ccc(NS(=O)(=O)c4cc(Cl)cc(Cl)c4)cc3)c2O)O1` [Compound C23] had a melting point of 211 to 213 °C. Moreover, the EC50 in the data set on PVY (setting [1]) is 871 ± 17.3 µg/mL. Also, in the data set with PVY (setting [2]), the EC50 is 1730 µM.

The compound `CC1(C)C=Cc2c(ccc(/C=N/c3ccc(NS(=O)(=O)c4cccs4)cc3)c2O)O1` [Compound C4] came in with a melting point of 148 to 150 °C. For the same compound, the EC50 in the data set on PVY (setting [1]) was determined as 667 ± 20.1 µg/mL. Further, the EC50 with PVY (setting [2]) was 1520 µM.

Take `CC(C)=CCCC1(C)C=Cc2c(ccc(/C=N/c3ccc(NS(=O)(=O)c4cccc(C)c4)cc3)c2O)O1` (stereo not drawn) [Compound C44]: the melting point fell in the range of 84 to 86 °C. The EC50 with PVY (setting [1]) came out at 882 ± 17.3 µg/mL. Also, the EC50 with PVY (setting [2]) was 1710 µM.

Compound `CC(=O)Nc1ccc(S(=O)(=O)Nc2ccc(/N=C/c3ccc4c(c3O)C=CC(C)(C)O4)cc2)cc1` [Compound C21] gave a melting point of 161 to 163 °C. In addition, the EC50 in the data set on PVY (setting [1]) was 1020 µg/mL. For the same compound, in the data set with PVY (setting [2]), the EC50 was 2080 µM.

Consider `CCc1ccc(S(=O)(=O)Nc2ccc(/N=C/c3ccc4c(c3O)C=CC(C)(C)O4)cc2)cc1` [Compound C18], for which the melting point fell in the range of 121 to 123 °C. Further, the EC50 in the data set on PVY (setting [1]) is 202 ± 3.8 µg/mL. Moreover, the EC50 in the data set with PVY (setting [2]) is 438 µM.

Take `CC1(C)C=Cc2c(ccc(/C=N/c3ccc(NS(=O)(=O)c4ccccc4Cl)cc3)c2O)O1` [Compound C25]: the melting point is 166 to 168 °C. In addition, the EC50 with PVY (setting [1]) was 244 ± 10.2 µg/mL. The EC50 in the data set on PVY (setting [2]) is 521 µM.

Regarding `CC1(C)C=Cc2c(ccc(/C=N/c3ccc(NS(=O)(=O)c4cc(F)ccc4F)cc3)c2O)O1` [Compound C15], the melting point lay within 180 to 182 °C. The EC50 with PVY (setting [1]) was determined as 903 ± 14.3 µg/mL. Also, the EC50 with PVY (setting [2]) is 1920 µM.

For the compound `CC1(C)C=Cc2c(ccc(/C=N/c3ccc(NS(=O)(=O)c4ccc(C(C)(C)C)cc4)cc3)c2O)O1` [Compound C20], the melting point fell in the range of 142 to 144 °C. Besides, in the data set with PVY (setting [1]), the EC50 is 1000 µg/mL. Besides, the EC50 in the data set with PVY (setting [2]) was 2050 µM.

Consider `Cc1cc(C)c(S(=O)(=O)Nc2ccc(/N=C/c3ccc4c(c3O)C=CC(C)(C)O4)cc2)c(C)c1` [Compound C19], for which the melting point was in the range of 137 to 139 °C. Further, the EC50 in the data set on PVY (setting [1]) is 492 ± 11.2 µg/mL. Further, the EC50 in the data set with PVY (setting [2]) is 1040 µM.

For `CC1(C)C=Cc2c(ccc(/C=N/c3ccc(NS(=O)(=O)C4CC4)cc3)c2O)O1` [Compound C13], the melting point was in the range of 147 to 149 °C. The EC50 in the data set with PVY (setting [1]) stood at 531 ± 20.7 µg/mL. The EC50 in the data set on PVY (setting [2]) was 1330 µM.

The compound `CC(C)=CCCC1(C)C=Cc2c(ccc(/C=N/c3ccc(NS(=O)(=O)c4cc(F)cc(F)c4)cc3)c2O)O1` (stereo not drawn) [Compound C48] showed a melting point of 138 to 140 °C. Moreover, the EC50 in the data set with PVY (setting [1]) came out at 717 ± 17.8 µg/mL. The EC50 in the data set with PVY (setting [2]) was 1330 µM.

Take `CC1(C)C=Cc2c(ccc(/C=N/c3ccc(NS(=O)(=O)c4ccc([N+](=O)[O-])cc4)cc3)c2O)O1` [Compound C12]: the melting point lay within 164 to 166 °C. The EC50 in the data set on PVY (setting [1]) came out at 400 ± 7.5 µg/mL. Moreover, in the data set on PVY (setting [2]), the EC50 is 836 µM.

`CCCCCCCCS(=O)(=O)Nc1ccc(/N=C/c2ccc3c(c2O)C=CC(C)(C)O3)cc1` [Compound C3] gave a melting point of 94 to 96 °C. Also, the EC50 with PVY (setting [1]) is 605 ± 12.2 µg/mL. In addition, the EC50 with PVY (setting [2]) was 1290 µM.

Compound `CC(C)=CCCC1(C)C=Cc2c(ccc(/C=N/c3ccc(NS(=O)(=O)c4ccc(C(F)(F)F)cc4)cc3)c2O)O1` (stereo not drawn) [Compound C46] had a melting point of 130 to 132 °C. Moreover, the EC50 with PVY (setting [1]) stood at 522 ± 8.1 µg/mL. Moreover, the EC50 with PVY (setting [2]) was 916 µM.

For the compound `CC(C)=CCCC1(C)C=Cc2c(ccc(/C=N/c3ccc(NS(=O)(=O)c4ccc(Cl)cc4)cc3)c2O)O1` (stereo not drawn) [Compound C41], the melting point lay within 115 to 117 °C. For the same compound, the EC50 with PVY (setting [1]) was 781 ± 15.3 µg/mL. Besides, the EC50 in the data set on PVY (setting [2]) is 1460 µM.

`CC(C)=CCCC1(C)C=Cc2c(ccc(/C=N/c3ccc(NS(=O)(=O)c4cccc(F)c4)cc3)c2O)O1` (stereo not drawn) [Compound C45]: the melting point was 113 to 115 °C. The EC50 with PVY (setting [1]) was 516 ± 9 µg/mL. For the same compound, in the data set with PVY (setting [2]), the EC50 was 991 µM.

`CC1(C)C=Cc2c(ccc(/C=N/c3ccc(NS(=O)(=O)c4ccc(C(F)(F)F)cc4)cc3)c2O)O1` [Compound C2] returned a melting point of 132 to 134 °C. In the data set on PVY (setting [1]), the EC50 was determined as 255.7 ± 0.72 µg/mL. Moreover, the EC50 in the data set on PVY (setting [2]) is 509 µM.

On to `CC1(C)C=Cc2c(ccc(/C=N/c3ccc(NS(=O)(=O)c4ccccc4C(F)(F)F)cc3)c2O)O1` [Compound C22], for which the melting point was in the range of 130 to 132 °C. The EC50 with PVY (setting [1]) amounted to 587 ± 9.9 µg/mL. In the data set with PVY (setting [2]), the EC50 is 1170 µM.

The compound `CC1(C)C=Cc2c(ccc(C=Nc3ccc(NS(=O)(=O)CC45CCC(CC4=O)C5(C)C)cc3)c2O)O1` (stereo not drawn) [Compound C40] yielded a melting point of 186 to 188 °C. The EC50 in the data set on PVY (setting [1]) amounted to 204 ± 7.1 µg/mL. Further, the EC50 in the data set with PVY (setting [2]) was 402 µM.

`CC1(C)C=Cc2c(ccc(/C=N/c3ccc(NS(=O)(=O)c4ccc(Cl)cc4Cl)cc3)c2O)O1` [Compound C31]: the melting point is 154 to 156 °C. For the same compound, the EC50 in the data set with PVY (setting [1]) stood at 976 ± 20 µg/mL. In addition, the EC50 in the data set with PVY (setting [2]) was 1950 µM.

In turn, `CC1(C)C=Cc2c(ccc(/C=N/c3ccc(NS(=O)(=O)c4cc(Cl)ccc4Cl)cc3)c2O)O1` [Compound C14] yielded a melting point of 148 to 150 °C. Besides, the EC50 in the data set with PVY (setting [1]) is 751 ± 19.4 µg/mL. Also, the EC50 with PVY (setting [2]) was 1500 µM.

As a reminder, the melting point is the temperature of the solid-liquid transition.
